Assay results reported in ChEMBL document CHEMBL2407067, “Pyridone-conjugated monobactam antibiotics with gram-negative activity” (J Med Chem, 2013).
pIC50: −log10 of the molar value. ≈ marks a conversion by molar mass, not a printed value.

Assays:
[1] = Inhibition of PBP1b in Pseudomonas aeruginosa ATCC 27853 after 20 mins by fluorescence assay
[2] = test system: Pseudomonas aeruginosa; experiment: Antibacterial activity against Pseudomonas aeruginosa 1042-06 by broth microdilution method; assay type: functional
[3] = test system: Klebsiella pneumoniae; experiment: Antibacterial activity against Klebsiella pneumoniae 1487-07 by broth microdilution method; assay type: functional
[4] = Inhibition of PBP2 in Pseudomonas aeruginosa ATCC 27853 after 20 mins by fluorescence assay
[5] = test system: Acinetobacter baumannii; experiment: Antibacterial activity against Acinetobacter baumannii AB-3167 by broth microdilution method; assay type: functional
[6] = Inhibition of PBP1a in Pseudomonas aeruginosa ATCC 27853 after 20 mins by fluorescence assay
[7] = Inhibition of PBP3 in Pseudomonas aeruginosa ATCC 27853 after 20 mins by fluorescence assay
[8] = test system: Pseudomonas aeruginosa; experiment: Antibacterial activity against PiuA/FptA receptor-deficient Pseudomonas aeruginosa PAO1 in Muller-Hinton broth medium by broth microdilution method; assay type: functional
[9] = test system: Pseudomonas aeruginosa; experiment: Antibacterial activity against FpvA receptor-deficient Pseudomonas aeruginosa PAO1 in iron-chelated Muller-Hinton broth medium by broth microdilution method; assay type: functional
[10] = test system: Klebsiella pneumoniae; experiment: Antibacterial activity against Klebsiella pneumoniae 1000-02 by broth microdilution method; assay type: functional
[11] = test system: Pseudomonas aeruginosa; experiment: Antibacterial activity against Pseudomonas aeruginosa PAO1 in Muller-Hinton broth medium by broth microdilution method; assay type: functional
[12] = test system: Pseudomonas aeruginosa; experiment: Antibacterial activity against PiuA/FptA receptor-deficient Pseudomonas aeruginosa PAO1 in iron-chelated Muller-Hinton broth medium by broth microdilution method; assay type: functional
[13] = test system: Pseudomonas aeruginosa; experiment: Antibacterial activity against PiuA/FpvA receptor-deficient Pseudomonas aeruginosa PAO1 in Muller-Hinton broth medium by broth microdilution method; assay type: functional
[14] = test system: Pseudomonas aeruginosa; experiment: Antibacterial activity against Pseudomonas aeruginosa PAO1 in iron-chelated Muller-Hinton broth medium by broth microdilution method; assay type: functional
[15] = test system: Pseudomonas aeruginosa; experiment: Antibacterial activity against PiuA receptor-deficient Pseudomonas aeruginosa PAO1 in iron-chelated Muller-Hinton broth medium by broth microdilution method; assay type: functional
[16] = test system: Pseudomonas aeruginosa; experiment: microbe, parasite or virus in culture; conditions: 1091-05
Description: Antibacterial activity against Pseudomonas aeruginosa 1091-05 by broth microdilution method

[17] = test system: Pseudomonas aeruginosa; experiment: Ratio of MIC for PiuA/PirA receptor-deficient Pseudomonas aeruginosa PAO1 to MIC for Pseudomonas aeruginosa PAO1 in iron-chelated Muller-Hinton broth medium by broth microdilution method; assay type: functional
[18] = test system: Pseudomonas aeruginosa; experiment: Antibacterial activity against PiuA/PirA receptor-deficient Pseudomonas aeruginosa PAO1 in Muller-Hinton broth medium by broth microdilution method; assay type: functional
[19] = test system: Pseudomonas aeruginosa; experiment: Antibacterial activity against PiuA/PirA receptor-deficient Pseudomonas aeruginosa PAO1 in iron-chelated Muller-Hinton broth medium by broth microdilution method; assay type: functional
[20] = test system: Pseudomonas aeruginosa; experiment: Antibacterial activity against PiuA/FpvA receptor-deficient Pseudomonas aeruginosa PAO1 in iron-chelated Muller-Hinton broth medium by broth microdilution method; assay type: functional
[21] = test system: Pseudomonas aeruginosa; experiment: Antibacterial activity against PiuA receptor-deficient Pseudomonas aeruginosa PAO1 in Muller-Hinton broth medium by broth microdilution method; assay type: functional
[22] = test system: Pseudomonas aeruginosa; experiment: Ratio of MIC for PiuA receptor-deficient Pseudomonas aeruginosa PAO1 to MIC for Pseudomonas aeruginosa PAO1 in Muller-Hinton broth medium by broth microdilution method; assay type: functional
[23] = test system: Pseudomonas aeruginosa; experiment: Antibacterial activity against FptA receptor-deficient Pseudomonas aeruginosa PAO1 in Muller-Hinton broth medium by broth microdilution method; assay type: functional
[24] = test system: Pseudomonas aeruginosa; experiment: Ratio of MIC for PiuA/PirA receptor-deficient Pseudomonas aeruginosa PAO1 to MIC for Pseudomonas aeruginosa PAO1 in Muller-Hinton broth medium by broth microdilution method; assay type: functional
[25] = test system: Pseudomonas aeruginosa; experiment: Antibacterial activity against PirA receptor-deficient Pseudomonas aeruginosa PAO1 in iron-chelated Muller-Hinton broth medium by broth microdilution method; assay type: functional
[26] = test system: Pseudomonas aeruginosa; experiment: Antibacterial activity against FpvA receptor-deficient Pseudomonas aeruginosa PAO1 in Muller-Hinton broth medium by broth microdilution method; assay type: functional
[27] = test system: Pseudomonas aeruginosa; experiment: Antibacterial activity against FptA receptor-deficient Pseudomonas aeruginosa PAO1 in iron-chelated Muller-Hinton broth medium by broth microdilution method; assay type: functional
[28] = test system: Pseudomonas aeruginosa; experiment: Antibacterial activity against PirA receptor-deficient Pseudomonas aeruginosa PAO1 in Muller-Hinton broth medium by broth microdilution method; assay type: functional
[29] = Fraction unbound in human plasma; assay type: ADME, cell-free
[30] = Fraction unbound in rat plasma; assay type: ADME, cell-free
[31] = Fraction unbound in mouse plasma; assay type: ADME, cell-free
[32] = Plasma clearance in Wistar Han rat at 1 mg/kg, iv by LC/MS/MS analysis; assay type: ADME, organism-based; design: dose 1 mg/kg, route intravenous
[33] = test system: Rattus norvegicus; experiment: Intrinsic clearance in Wistar Han rat at 1 mg/kg, iv by LC/MS/MS analysis; assay type: ADME, organism-based; design: dose 1 mg/kg, route intravenous; conditions: in vivo
[34] = test system: Klebsiella pneumoniae; experiment: Antibacterial activity against Klebsiella pneumoniae expressing ESBL by broth microdilution method; assay type: functional
[35] = test system: Pseudomonas aeruginosa; experiment: Antibacterial activity against Pseudomonas aeruginosa expressing metallo-beta-lactamase by broth microdilution method; assay type: functional
[36] = test system: Escherichia coli; experiment: Antibacterial activity against Escherichia coli expressing CTX-M by broth microdilution method; assay type: functional
[37] = test system: Klebsiella pneumoniae; experiment: Antibacterial activity against Klebsiella pneumoniae expressing KPC by broth microdilution method; assay type: functional
[38] = test system: Acinetobacter sp.; experiment: Antibacterial activity against Acinetobacter spp. by broth microdilution method; assay type: functional
[39] = test system: Escherichia coli; experiment: Antibacterial activity against Escherichia coli expressing ESBL by broth microdilution method; assay type: functional
[40] = test system: Klebsiella pneumoniae; experiment: Antibacterial activity against Klebsiella pneumoniae expressing defined beta-lactamase by broth microdilution method; assay type: functional
[41] = test system: Pseudomonas aeruginosa; experiment: Antibacterial activity against Pseudomonas aeruginosa from cystic fibrosis patients by broth microdilution method; assay type: functional
[42] = test system: Escherichia coli; experiment: Antibacterial activity against Escherichia coli expressing defined beta-lactamase by broth microdilution method; assay type: functional

| SMILES | pIC50 [1] | MIC [2] [µg/mL] | pIC50 [4] | MIC [5] [µg/mL] | pIC50 [6] | pIC50 [7] | MIC [10] [µg/mL] | MIC [3] [µg/mL] | MIC [16] [µg/mL] | MIC50 [34] [µg/mL] | MIC90 [34] [µg/mL] | MIC50 [35] [µg/mL] | MIC90 [35] [µg/mL] | MIC50 [36] [µg/mL] | MIC90 [36] [µg/mL] | MIC50 [37] [µg/mL] | MIC90 [37] [µg/mL] | MIC50 [38] [µg/mL] | MIC90 [38] [µg/mL] | MIC50 [39] [µg/mL] | other results |
| --- | --- | --- | --- | --- | --- | --- | --- | --- | --- | --- | --- | --- | --- | --- | --- | --- | --- | --- | --- | --- | --- |
| NCC[C@H](O)C(=O)N[C@@H]1C[C@H](N)[C@@H](O[C@H]2O[C@H](CN)[C@@H](O)[C@H](O)[C@H]2O)[C@H](O)[C@H]1O[C@H]1O[C@H](CO)[C@@H](O)[C@H](N)[C@H]1O [AMIKACIN] | – | 8 (≈ 13.7 µM) | – | 1 (≈ 1.71 µM) | – | – | – | 64 (≈ 109 µM) | 2 (≈ 3.42 µM) | 4 (≈ 6.83 µM) | 64 (≈ 109 µM) | > 64 | > 64 | 8 (≈ 13.7 µM) | 32 (≈ 54.6 µM) | 32 (≈ 54.6 µM) | > 64 | 4 (≈ 6.83 µM) | > 64 | 8 (≈ 13.7 µM) | MIC90 [39]: 64 µg/mL (≈ 109 µM); MIC50 [40]: 4 µg/mL (≈ 6.83 µM); MIC90 [40]: > 64 µg/mL; MIC50 [41]: 8 µg/mL (≈ 13.7 µM); MIC90 [41]: > 64 µg/mL; MIC50 [42]: 1 µg/mL (≈ 1.71 µM); MIC90 [42]: 16 µg/mL (≈ 27.3 µM) |
| C[C@H]1[C@H](NC(=O)/C(=N\OC(C)(C)C(=O)O)c2csc(N)n2)C(=O)N1S(=O)(=O)O [AZTREONAM] | 5.54 | 64 (≈ 147 µM) | < 3.52 | 4 (≈ 9.19 µM) | 5.48 | 8.10 | > 64 | > 64 | 4 (≈ 9.19 µM) | 32 (≈ 73.5 µM) | > 64 | 8 (≈ 18.4 µM) | 16 (≈ 36.7 µM) | 64 (≈ 147 µM) | > 64 | > 64 | > 64 | 32 (≈ 73.5 µM) | > 64 | 64 (≈ 147 µM) | MIC90 [39]: > 64 µg/mL; MIC50 [40]: 64 µg/mL (≈ 147 µM); MIC90 [40]: > 64 µg/mL; MIC50 [41]: 8 µg/mL (≈ 18.4 µM); MIC90 [41]: 64 µg/mL (≈ 147 µM); MIC50 [42]: 4 µg/mL (≈ 9.19 µM); MIC90 [42]: > 64 µg/mL |

Now from value to compound, other results behind:

| pIC50 [1] | MIC [2] [µg/mL] | pIC50 [4] | MIC [5] [µg/mL] | pIC50 [6] | pIC50 [7] | MIC [10] [µg/mL] | SMILES | MIC [3] [µg/mL] | MIC [16] [µg/mL] | MIC50 [34] [µg/mL] | MIC90 [34] [µg/mL] | MIC50 [35] [µg/mL] | MIC90 [35] [µg/mL] | MIC50 [36] [µg/mL] | MIC90 [36] [µg/mL] | MIC50 [37] [µg/mL] | MIC90 [37] [µg/mL] | MIC50 [38] [µg/mL] | MIC90 [38] [µg/mL] | MIC50 [39] [µg/mL] | other results |
| --- | --- | --- | --- | --- | --- | --- | --- | --- | --- | --- | --- | --- | --- | --- | --- | --- | --- | --- | --- | --- | --- |
| 5.61 | 1 (≈ 1.55 µM) | < 3.52 | 0.125 (≈ 0.194 µM) | 6.47 | 7.18 | – | Nc1nc(/C(=N/OC2(C(=O)O)CCC2)C(=O)N[C@@H]2C(=O)N(S(=O)(=O)O)[C@@H]2CNC(=O)NCc2cc(=O)c(O)cn2O)cs1 | 0.5 (≈ 0.776 µM) | – | – | – | – | – | – | – | – | – | – | – | – | – |
| 6.82 | 0.25 | < 3.52 | 0.125 | 6.96 | 8.22 | 1 | CC(C)(O/N=C(\C(=O)N[C@@H]1C(=O)N(S(=O)(=O)[O-])[C@@H]1CNC(=O)c1cc(-c2cc(=O)c(O)cn2O)no1)c1csc(N)n1)C(=O)[O-].[Na+].[Na+] | – | 0.25 | – | – | – | – | – | – | – | – | – | – | – | MIC [8]: 8 µg/mL; MIC [9]: 0.125 µg/mL; MIC [11]: 0.25 µg/mL; MIC [12]: 1 µg/mL; MIC [13]: 8 µg/mL; MIC [14]: 0.25 µg/mL; MIC [15]: 1 µg/mL; Ratio [17]: >=64; MIC [18]: 32 µg/mL; MIC [19]: 16 µg/mL; MIC [20]: 0.5 µg/mL; MIC [21]: 8 µg/mL; Ratio [22]: 32; MIC [23]: 0.25 µg/mL; Ratio [24]: >=64; MIC [25]: 0.25 µg/mL; MIC [26]: 0.125 µg/mL; MIC [27]: 0.25 µg/mL; MIC [28]: 0.25 µg/mL |
| – | 2 | – | 0.125 | – | – | 4 | CC(C)(O/N=C(\C(=O)N[C@@H]1C(=O)N(S(=O)(=O)[O-])[C@@H]1CNC(=O)OCc1cc(=O)c(O)cn1O)c1csc(N)n1)C(=O)[O-].[Na+].[Na+] | – | 0.25 | – | – | – | – | – | – | – | – | – | – | – | fraction unbound [29]: 0.51; fraction unbound [30]: 0.61; fraction unbound [31]: 0.72; clearance [32]: 14.2 mL/min/kg; CL [33]: 29 mL/min/kg |
